These results are taken from patent EP0533350B1, “DNA encoding precursor interleukin 1B converting enzyme” (Merck & Co., Inc., priority 1991, dated 1993).

Read-outs that look alike come from different tables or passages of the source. Where a SMILES comes first, the peptide text is derived from it. [ ]: non-standard residue; d: D form. The star is where a group is joined. Sta = CC(C)C[C@H](N)[C@@H](O)CC(=O)O; Isovaleryl = CC(C)CC(=O)*

Experiment [1] concerns the target T1, ICE (Homo sapiens, UniProt P29466).
T1 sequence (P29466 120-297): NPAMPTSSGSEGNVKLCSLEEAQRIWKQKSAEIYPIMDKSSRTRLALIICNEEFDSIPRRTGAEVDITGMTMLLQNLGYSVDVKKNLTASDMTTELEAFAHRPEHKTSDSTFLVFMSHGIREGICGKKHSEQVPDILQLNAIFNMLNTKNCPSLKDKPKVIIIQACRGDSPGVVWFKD
T1 sequence (P29466 317-404): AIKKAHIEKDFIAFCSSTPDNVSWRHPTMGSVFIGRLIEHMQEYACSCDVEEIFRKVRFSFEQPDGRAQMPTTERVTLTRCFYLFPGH
Nature of the experiment: Protease inhibitor sensitivity of ICE: inhibitor added to THP.1 S-300, gel-based pre-IL-1β cleavage assay.

Experiment [2] addresses T1, ICE. Nature of the experiment: Discontinuous kinetic assay of ICE with P14mer as substrate. The experiment is classed as biochemical. Also noted: endogenous in cells; host or cells: THP.1 cells, S-300 (300,000 x g) cytosolic supernatant. As to the method:
Proteolytic cleavage of peptide substrates from Example 12 was carried out in the following manner. Samples of peptides were prepared in dimethyl sulfoxide at a concentration of 10 mM. The enzyme used in these studies was purified through sulfopropyl cation exhange chromatography. Reaction mixtures contained approximately 0.2 mg/ml enzyme, 0.2 mM peptide, 10% sucrose, 0.1% CHAPS (3-[(3-cholamidopropyl)dimethyl-ammonio]-1-propansulfon at), 10 mM HEPES (N-2-hydroxyethylpiperazine-N'-2-ethanesulfonic Acid), pH 7.5 in a 50 ul reaction volume. After incubation at 25 degrees for variable lengths of time, reactions were quenched with the addition of 450 ul 0.1% trifluoroacetic acid. The samples were analyzed by reverse-phase high performance liquid chromatography using a Vydac C-18 column (4.6 mm x 25 cm, 5 um particle size, 300 pore size) equilibrated with 5% acetonitrile, 0.1% trifluoroacetic acid at a flow rate of 1 ml/min. Peptides were eluted using a 10 min linear gradient of 5 to 30% acetonitrile and quantitated by monitoring the column effluent at 280 nm. Under these conditions substrate and tyrosine-containing product were separated with baseline resolution in every case. The identity of cleavage products was confirmed using peptide standards.
The data in Table 3 was generated using partially purified enzyme or THP-1 […] and the gel-based cleavage assay as an indicator of ICE activity. This has been verified and extended using the P14mer assay as well as Ac-Tyr-Val-Ala-Asp-AMC as substrates. The only exception to the results of this table came when 1,10 phenanthroline (OP) was tested as an inhibitor. […] The rate constant (8 x 10-2 s-1 M-1) for inactivation is slow and it is not possible to reconstitute ICE activity by addition of ZnC12 following treatment with the chelator. […] The data is not consistent with the hypothesis that ICE is a metalloprotease.

A further experiment has as its target T2, recombinant ICE (Homo sapiens, UniProt P29466).
T2 construct: transfection of full-length ICE cDNA, including the complete ORF of the 45 kDa ICE preprotein; expressed in transfected cells; host or cells: COS-7 cells, vector pSZ-9016 co-transfected with pX8TAT; detergent lysate
T2 sequence (P29466 120-297 limits assumed): T1 sequence (P29466 120-297)
T2 sequence (P29466 317-404 limits assumed): T1 sequence (P29466 317-404)
Nature of the experiment: IL-1β precursor cleavage by lysates of COS-7 cells transfected with full-length ICE cDNA. Format: biochemical. The following applies: lysates of COS-7 cells transfected with ICE cDNA. How it is done:
The expression of recombinant ICE was achieved by transfection of full-length ICE cDNA, including the complete ORF of the 45 kDa ICE preprotein (Fig. 23), into a mammalian host cell. The 1.6 kb EcoRI fragment containing the full length ICE cDNA was cloned into vector pSZ-9016. 6µg of this DNA along with 0.6 ug of pX8TAT, a mammalian expression vector which places the trans-activating protein (TAT) of HIV under the control of the SV40 early promoter, was transfected into COS-7 cells by the cationic-liposome method. Cells were harvested 48 hours later and lysed in detergent buffer (25 mM HEPES pH 7, 1% Triton-X-100, 1mM EDTA, 2mM DTT, 10 ug/ml aprotinin, 10 ug/ml leupeptin, 10 ug/ml pepstatin, and 2 mM PMSF). Cell lysates were incubated with radiolabeled IL-1β precursor to measure ICE activity. Cleavage products of IL-1β were analyzed by immunoprecipitation with IL-1B antibody and fractionation on SDS polyacrylamide gels. The IL-1β precursor was cleaved to the mature, 17 kDa form by cells transfected with ICE cDNA, but not by cells transfected with the expression plasmid alone. […] The substrate specificity of the expressed ICE activity was verified by incubating lysates with an IL-1β precursor cleavage site mutant (Ala^116) which cannot be cleaved by ICE. […]

Experiment [3] addresses T1, ICE.
Protocol: Using 14C-iodoacetate as the alkylating reagent a similar protocol was used to identify proteins that could be labeled in the presence or absence of 200 x Km substrate. […] ICE and 100 mM 14-C-iodoacetate were incubated in the presence (+S) or absence (-S) of 2.8 mM Ac-Tyr-Val-Ala-Asp-AMC and incubated for 1 hour. At 1 hour the reaction is quenched by the addition of 10 mM unlabeled iodoacetate and 10 mM DTT. Aliquots of the reaction were analyzed by SDS-PAGE followed by coomassie blue staining or autoradiography.
For experiment [4], the target named is T1, ICE. Put plainly: Size exclusion chromatography (TSK G2000) of GSSG or cystamine treated ICE. The arrangement: endogenous in cells; host or cells: THP.1 cells, S-300 (300,000 x g) cytosolic supernatant. The conditions noted are these: concentrated ICE pretreated 24 hrs, TSK G2000 column. On the technique in general: SEC sorts molecules by how far they enter the pores of the column.

Experiment [5] concerns the target T1, ICE. Put plainly: Mixed disulfide treatment of ICE, continuous fluorometric assay, DTT reversal and dilution stability. The experiment is classed as biochemical. Also noted: endogenous in cells; host or cells: THP.1 cells, S-300 (300,000 x g) cytosolic supernatant.
Experiment [6] has as its target T1, ICE. Nature of the experiment: Inhibition of ICE by mechanism based thiol protease inhibitors (diazomethyl ketone, peptide aldehydes). The experiment is classed as biochemical. The arrangement: endogenous in cells; host or cells: THP.1 cells (or human peripheral blood monocytes); cytosolic extract, ammonium sulfate, DEAE, sulfopropyl cation exchange. The conditions noted are these: relative to Ac-Tyr-Val-Ala-Asp-CHO. The source says:
Characterization of ICE in terms of protease class was ultimately accomplished by the synthesis of two types of mechanism based thiol protease inhibitors, a diazomethyl ketone and a peptide aldehyde, both constructed from the Ac-Tyr-Val-Ala-Asp peptide. The peptidyl diazomethyl ketone (Ac-Tyr-Val-Ala-Asp-CHN2) and the peptide aldehyde (Ac-Tyr-Val-Ala-Asp-CHO) were both synthesized as described in an accompanying patent. […] However, the specificity of action on ICE has been determined by synthesis of a chemically similar peptide aldehyde, Ac-Tyr(dAla)-Val-Ala-Asp-CHO and tested for its ability to inhibit ICE in a competitive and reversible manner.

Regarding `c1cnc2c(c1)ccc1cccnc12` [1,10-phenanthroline], at ICE [1], the “inhibition of ICE activity in the gel based cleavage assay” value was “did not inhibit”. Further, the Inhibition result at ICE [1] (Conc. 10 mM) was “-”. In addition, the “inhibition of ICE activity” value against ICE [2] (P14mer as substrate) was “can inhibit ICE activity in a time and concentration dependant manner”. In addition, the “increase in the rate at which ICE is inhibited” value on ICE [2] (addition of 10 mM CuSO4 to assay containing 1.0 mM OP) is on record as 17 fold. Moreover, the “inhibition of ICE on co-treatment with two metal chelators” value at ICE [2] (co-treatment with EDTA and OP) is recorded as “did not result in an inhibition of ICE”.
For `O=C1C=CC(=O)N1c1ccccc1` [N-phenyl maleimide], at ICE [1] (Conc. 1 mM), the Inhibition result was “+”.
`CC(=O)N[C@@H](Cc1ccc(O)cc1)C(=O)N[C@H](C(=O)N[C@@H](C)C(=O)N[C@H](C=O)CC(=O)O)C(C)C` [L-709,049]: the “inhibition of IL-1β precursor cleavage to the mature 17 kDa form” value at recombinant ICE was “completely inhibited”.
For `Cc1ccc(S(=O)(=O)N[C@@H](Cc2ccccc2)C(=O)CCl)cc1` [TPCK], the Inhibition result at ICE [1] was “+”.
`O=C(O)CN(CCOCCOCCN(CC(=O)O)CC(=O)O)CC(=O)O` [EGTA]: the Inhibition result on ICE [1] (Conc. 10 mM) is given as “-”.
Turning to `Cc1ccc(S(=O)(=O)N[C@@H](CCCCN)C(=O)CCl)cc1` [TLCK], the Inhibition entry on ICE [1] is “+”.
Regarding `CC(C)CC(=O)N[C@H](C(=O)N[C@H](C(=O)N[C@@H](CC(C)C)[C@@H](O)CC(=O)N[C@@H](C)C(=O)N[C@@H](CC(C)C)[C@@H](O)CC(=O)O)C(C)C)C(C)C` [Chloromethyl ketonePepstatin, Pepstatin] (Isovaleryl-VV[Sta]A[Sta]-OH), at ICE [1] (Conc. 100 µM), the Inhibition result is “-”.
Regarding `O=C(O)CN(CCN(CC(=O)O)CC(=O)O)CC(=O)O` [EDTA], the Inhibition entry at ICE [1] (Conc. 50 mM) is on record as “-”.
In the case of `CC(=O)N[C@@H](CC(C)C)C(=O)N[C@@H](CC(C)C)C(=O)N[C@H](C=O)CCCNC(=N)N` [Leupeptin], at ICE [1], the Inhibition result is reported as “-”.
Consider `CC(C)CC(NC(=O)C1OC1C(=O)O)C(=O)NCCCCNC(=N)N` (stereo not shown) [Compound E-64], for which the Inhibition result at ICE [1] (Conc. 1 mM) is listed as “-”.
`O=C(O)CI` [Iodoacetic acid]: the Inhibition result at ICE [1] is on record as “+”. Also, at ICE [3], the “rate constant for inactivation of ICE” value turned out to be 24 M⁻¹ s⁻¹. The compound also registered a half-time of inhibition on ICE [3] (100 mM iodoacetate, substrate at 1 * Km) of 9.13 min. The same compound returned an ICE inactivated against ICE [3] (100 mM radiolabeled iodoacetate, 2.8 mM Ac-Tyr-Val-Ala-Asp-AMC (200 x Km) included) of less than 2%.
Turning to `CCN1C(=O)C=CC1=O` [N-ethyl maleimide], the Inhibition result on ICE [1] is “+”.
On to `NCCSSCCN` [Cystamine], for which, on ICE [1] (Conc. 1 mM), the Inhibition result is listed as “+”. Also, the “apparent Mr of treated enzyme” value on ICE [4] was 22,000. Besides, the “half-time of time dependant decrease in activity” value at ICE [5] (5 mM cystamine) stood at 19 min. Further, the enzyme activity recovered at ICE [5] (addition of DTT after the inactivation plateau, 5 mM cystamine) was 23%. Also, the recovery of activity result on ICE [5] (concentrated ICE (3 units/ml), 5 mM cystamine, 3 day equilibration at 4 °C, then DTT) is listed as “Complete recovery of activity”. In addition, at ICE [5] (upon dilution of treated enzyme), the “stabilization of ICE activity” value is given as “did not appear to stabilize ICE activity”.
`NC(=O)CI` [Iodoacetamide]: on ICE [1], the Inhibition result is reported as “+”.
PMSF: the Inhibition entry at ICE [1] is on record as “-”.
In the case of Ac-Tyr(dAla)-Val-Ala-Asp-CHO, at ICE [6], the “less potent at inhibiting ICE activity” value turned out to be 300 fold.
